The source of these data is patent US20260193264A1, “BENZOYPARAZINE PYRAZINES AND THEIR USES” (FOGHORN THERAPEUTICS INC., priority 2022, published 2026).

Structures are written as SMILES. A value given as a limit tells only on which side of the number the result lay.

Experiment [1] has as its target T1, HiBiT-BRM fusion protein in stable HeLa cell line (Homo sapiens, UniProt P51531).
T1 construct: expressed in transfected cells
As to the kind of experiment: HiBiT-BRM cell-based degradation assay (Nano-Glo HiBiT Lytic Detection, 24 h). Also noted: DC50: scale not given here. The following applies: HeLa HiBiT-BRM cells; for DC50: read-out: BRM HiBit Degradation IC50; for BRM HiBit Degradation Maximum (%): top dose 30 μM. As to the method:
(§1) Procedure: A stable HeLa cell line expressing HiBiT-BRM was generated. On day 0, 5000 cells were seeded in 40 μL of media into each well of 384-well cell culture plates. On day 1, cells were treated with 120 nL DMSO or 120 nL of 3-fold serially DMSO-diluted compounds (10 points in duplicate with 30 μM as final top dose). Subsequently plates were incubated for 24 h in a standard tissue culture incubator and equilibrated at room temperature for 15 minutes. Nano-Glo HiBiT Lytic Detection System (Promega N3050) reagent was freshly prepared and 20 ul was added to each well. Upon addition of this LgBit-containing reagent, the HiBiT and LgBiT proteins associate to form the luminescent NanoBiT luciferase. The plates were shaken for 10 minutes at room temperature and the bioluminescence read using an EnVision plate reader (PerkinElmer).
The degradation % was calculated using the following formula: % degradation=100%−100%×(Lumsample−LumLC)/(LumHC−LumLC). DMSO treated cells are employed as High Control (HC) and 2 μM of a known BRM/BRG1 degrader standard treated cells are employed as Low Control (LC).
On the technique in general: The HiBiT peptide binds its large partner to form an active luciferase.

The target in experiment [2] is T2, HiBit-BRG1 fusion protein in stable HeLa cell line expressing HiBit-BRG1 and LgBit (Homo sapiens, UniProt P51532).
T2 construct: expressed in transfected cells
T2 sequence (P51532 whole entry, the tested form may be a part): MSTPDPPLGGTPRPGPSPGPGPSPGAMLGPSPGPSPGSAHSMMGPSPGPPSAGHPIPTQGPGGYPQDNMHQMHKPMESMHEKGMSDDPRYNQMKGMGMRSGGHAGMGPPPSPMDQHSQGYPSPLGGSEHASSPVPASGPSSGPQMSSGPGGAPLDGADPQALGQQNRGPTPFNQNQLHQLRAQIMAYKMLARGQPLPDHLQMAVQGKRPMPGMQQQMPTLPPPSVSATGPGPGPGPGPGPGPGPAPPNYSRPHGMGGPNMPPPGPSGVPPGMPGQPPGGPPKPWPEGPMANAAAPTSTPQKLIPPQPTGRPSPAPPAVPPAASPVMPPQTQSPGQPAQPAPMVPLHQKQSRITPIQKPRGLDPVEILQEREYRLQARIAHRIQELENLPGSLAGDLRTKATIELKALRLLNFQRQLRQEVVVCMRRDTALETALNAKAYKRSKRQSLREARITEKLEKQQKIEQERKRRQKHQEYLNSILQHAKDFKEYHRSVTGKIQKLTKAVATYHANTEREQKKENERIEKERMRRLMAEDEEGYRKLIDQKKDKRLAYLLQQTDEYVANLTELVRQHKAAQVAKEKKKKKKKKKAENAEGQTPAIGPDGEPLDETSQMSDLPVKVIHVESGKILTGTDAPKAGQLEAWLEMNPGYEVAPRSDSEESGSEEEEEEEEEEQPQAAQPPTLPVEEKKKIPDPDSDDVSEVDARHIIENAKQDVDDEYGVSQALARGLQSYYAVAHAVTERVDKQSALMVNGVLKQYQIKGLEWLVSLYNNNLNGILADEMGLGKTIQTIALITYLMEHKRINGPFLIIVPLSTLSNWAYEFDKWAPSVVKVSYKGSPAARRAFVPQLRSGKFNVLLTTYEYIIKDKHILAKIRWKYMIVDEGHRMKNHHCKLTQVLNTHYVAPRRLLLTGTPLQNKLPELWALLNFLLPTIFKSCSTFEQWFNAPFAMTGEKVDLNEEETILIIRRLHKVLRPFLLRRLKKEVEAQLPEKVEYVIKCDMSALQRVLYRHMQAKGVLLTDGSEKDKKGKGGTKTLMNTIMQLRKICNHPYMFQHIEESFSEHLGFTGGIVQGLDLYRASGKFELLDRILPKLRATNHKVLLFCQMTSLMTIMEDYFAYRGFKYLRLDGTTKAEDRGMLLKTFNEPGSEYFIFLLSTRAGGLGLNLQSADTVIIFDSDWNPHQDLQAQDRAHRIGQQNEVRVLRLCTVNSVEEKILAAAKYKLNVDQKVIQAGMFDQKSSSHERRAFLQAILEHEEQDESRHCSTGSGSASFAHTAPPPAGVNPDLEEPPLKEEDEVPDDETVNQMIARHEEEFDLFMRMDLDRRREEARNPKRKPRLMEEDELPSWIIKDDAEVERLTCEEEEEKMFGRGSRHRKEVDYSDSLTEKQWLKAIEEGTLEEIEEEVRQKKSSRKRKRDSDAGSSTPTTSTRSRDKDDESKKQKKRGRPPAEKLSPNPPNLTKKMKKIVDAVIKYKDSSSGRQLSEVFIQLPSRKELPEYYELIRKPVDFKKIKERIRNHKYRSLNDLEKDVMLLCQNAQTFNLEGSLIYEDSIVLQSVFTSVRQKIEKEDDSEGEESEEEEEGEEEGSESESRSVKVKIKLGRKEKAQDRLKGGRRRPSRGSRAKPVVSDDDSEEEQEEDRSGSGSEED
The experiment in a line: HiBiT-BRG1 cell-based degradation assay (Nano-Glo HiBiT, 24 h). The following applies: HeLa HiBit-BRG1/LgBit cells; for DC50: read-out: BRMG1 HiBit Degradation IC50; for Dmax: top dose 30 μM, read-out: BRG1 HiBit Degradation Maximum (%). How it is done: as §1, with “On day 1, cells were treated with 120 nL DMSO or 120 nL of 3-fold serially DMSO-diluted compounds (10 points in duplicate with 30 μM as final top dose).” left out, “(PerkinElmer). For measurement of BRG1 degradation, a stable HeLa cell line expressing HiBit-BRG1 and LgBit was generated. The same protocol as above was then followed. The degradation % was calculated using the following formula: % degradation=100%−100%×(Lumsample−LumLC)/(LumHC−LumLC). DMSO treated cells are employed as High Control (HC) and 2 μM of a known BRM/BRG1 degrader standard treated cells are employed as Low Control (LC).” for “(PerkinElmer).”

T1 sequence (P51531 whole entry, the tested form may be a part): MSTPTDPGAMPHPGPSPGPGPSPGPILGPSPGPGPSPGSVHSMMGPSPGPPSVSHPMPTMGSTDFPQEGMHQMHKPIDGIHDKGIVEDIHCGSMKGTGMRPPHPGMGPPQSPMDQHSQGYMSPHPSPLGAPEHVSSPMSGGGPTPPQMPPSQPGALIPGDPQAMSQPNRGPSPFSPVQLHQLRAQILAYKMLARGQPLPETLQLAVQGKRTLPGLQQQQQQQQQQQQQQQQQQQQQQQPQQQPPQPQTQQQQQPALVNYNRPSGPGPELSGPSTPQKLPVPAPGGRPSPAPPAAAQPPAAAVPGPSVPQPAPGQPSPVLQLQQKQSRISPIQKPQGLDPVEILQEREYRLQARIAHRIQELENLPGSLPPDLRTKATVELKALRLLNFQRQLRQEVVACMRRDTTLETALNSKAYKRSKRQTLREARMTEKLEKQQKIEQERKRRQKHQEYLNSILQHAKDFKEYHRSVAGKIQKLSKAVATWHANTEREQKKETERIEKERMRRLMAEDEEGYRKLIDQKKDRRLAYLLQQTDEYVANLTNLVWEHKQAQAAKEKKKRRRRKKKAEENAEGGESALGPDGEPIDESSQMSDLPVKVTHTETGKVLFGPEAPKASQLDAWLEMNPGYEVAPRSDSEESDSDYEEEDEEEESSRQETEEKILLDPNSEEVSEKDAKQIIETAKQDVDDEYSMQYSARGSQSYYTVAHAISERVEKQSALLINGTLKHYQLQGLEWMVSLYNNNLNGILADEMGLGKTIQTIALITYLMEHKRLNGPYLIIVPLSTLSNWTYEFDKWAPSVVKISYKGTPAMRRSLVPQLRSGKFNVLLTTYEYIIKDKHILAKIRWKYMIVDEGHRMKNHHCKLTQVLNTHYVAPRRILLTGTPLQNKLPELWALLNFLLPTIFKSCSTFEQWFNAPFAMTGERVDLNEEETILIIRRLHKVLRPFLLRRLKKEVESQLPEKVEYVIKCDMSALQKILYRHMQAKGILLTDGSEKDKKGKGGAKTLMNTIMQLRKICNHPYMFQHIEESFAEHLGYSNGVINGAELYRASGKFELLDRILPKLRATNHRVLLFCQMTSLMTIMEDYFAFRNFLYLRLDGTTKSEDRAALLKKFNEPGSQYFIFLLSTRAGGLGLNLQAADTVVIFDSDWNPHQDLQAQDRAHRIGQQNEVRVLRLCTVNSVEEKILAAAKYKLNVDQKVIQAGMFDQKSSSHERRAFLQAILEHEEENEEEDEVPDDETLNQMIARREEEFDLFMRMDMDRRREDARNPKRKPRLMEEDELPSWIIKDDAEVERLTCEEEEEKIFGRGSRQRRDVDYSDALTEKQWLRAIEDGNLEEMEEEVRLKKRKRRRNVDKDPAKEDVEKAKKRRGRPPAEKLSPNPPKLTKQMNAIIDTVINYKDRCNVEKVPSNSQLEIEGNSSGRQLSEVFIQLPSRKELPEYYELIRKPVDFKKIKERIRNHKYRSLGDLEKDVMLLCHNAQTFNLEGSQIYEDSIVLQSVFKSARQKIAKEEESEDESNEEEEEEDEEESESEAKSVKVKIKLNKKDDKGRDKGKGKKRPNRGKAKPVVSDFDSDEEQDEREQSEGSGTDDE

On to `Cc1ncsc1-c1ccc([C@H](C)NC(=O)[C@@H]2C[C@@H](O)CN2C(=O)[C@@H](c2cc(-c3cnc(N4CCN(c5ccc6nnc(-c7ccccc7O)cc6c5)CC4)nc3)no2)C(C)C)cc1` [Compound 13, (2S,4R)-4-hydroxy-1-((R)-2-(3-(2-(4-(3-(2-hydroxyphenyl)cinnolin-6-yl)piperazin-1-yl)pyrimidin-5-yl)isoxazol-5-yl)-3-methylbutanoyl)-N—((S)-1-(4-(4-methylthiazol-5-yl)phenyl)ethyl)pyrrolidine-2-carboxamide], for which, in experiment [1], the DC50 was under 10 nM and the “BRM HiBit Degradation Maximum (%)” value is listed as “A (“A” indicates maximum degradation ≥75%)”. Moreover, in experiment [2], the DC50 is under 10 nM and the Dmax is over 75%.
As to `Cc1ncsc1-c1ccc([C@H](C)NC(=O)[C@@H]2C[C@@H](O)CN2C(=O)[C@H](c2cc(-c3cnc(N4CCN(c5ccc6nnc(-c7ccccc7O)cc6c5)CC4)nc3)no2)C(C)C)cc1` [Compound 14, (2S,4R)-4-hydroxy-1-((S)-2-(3-(2-(4-(3-(2-hydroxyphenyl)cinnolin-6-yl)piperazin-1-yl)pyrimidin-5-yl)isoxazol-5-yl)-3-methylbutanoyl)-N—((S)-1-(4-(4-methylthiazol-5-yl)phenyl)ethyl)pyrrolidine-2-carboxamide], in experiment [1], the DC50 is over 10 nM and the “BRM HiBit Degradation Maximum (%)” value was “A (“A” indicates maximum degradation ≥75%)”. Also, in experiment [2], the DC50 is over 100 nM and the Dmax was over 75%.
For the molecule `Cc1ncsc1-c1ccc([C@H](C)NC(=O)[C@@H]2C[C@@H](O)CN2C(=O)[C@H](c2cc(-c3cnc(N4CC5(CC(c6ccc7cc(-c8ccccc8O)nnc7c6)C5)C4)nc3)no2)C(C)C)cc1` [Compound 17], in experiment [1], the DC50 was over 10 nM and the “BRM HiBit Degradation Maximum (%)” value is reported as “A (“A” indicates maximum degradation ≥75%)”. In addition, the Dmax in experiment [2] is under 50%.
`Cc1ncsc1-c1ccc([C@H](C)NC(=O)[C@@H]2C[C@@H](O)CN2C(=O)[C@@H](c2cc(-c3cnc(N4CC5(CC(c6ccc7cc(-c8ccccc8O)nnc7c6)C5)C4)nc3)no2)C(C)C)cc1` [Compound 18]: in experiment [1], the DC50 is under 10 nM and the “BRM HiBit Degradation Maximum (%)” value is recorded as “A (“A” indicates maximum degradation ≥75%)”. Further, in experiment [2], the DC50 is over 10 nM and the Dmax was over 50%.
With `Cc1ncsc1-c1ccc([C@H](C)NC(=O)[C@@H]2C[C@@H](O)CN2C(=O)[C@H](c2cc(-c3cnc(N4CC[C@@H](c5ccc6cc(-c7ccccc7O)nnc6c5)C4)nc3)no2)C(C)C)cc1` [Compound 19], in experiment [1], the DC50 is over 100 nM and the “BRM HiBit Degradation Maximum (%)” value is recorded as “B (“B” indicates maximum degradation ≥50%)”. The Dmax in experiment [2] is under 50%.
Take `Cc1ncsc1-c1ccc([C@H](C)NC(=O)[C@@H]2C[C@@H](O)CN2C(=O)[C@@H](c2cc(-c3cnc(N4CC[C@@H](c5ccc6cc(-c7ccccc7O)nnc6c5)C4)nc3)no2)C(C)C)cc1` [Compound 20]: in experiment [1], the DC50 was under 10 nM and the “BRM HiBit Degradation Maximum (%)” value was “A (“A” indicates maximum degradation ≥75%)”. Besides, in experiment [2], the Dmax was under 50%.
For the molecule `Cc1ncsc1-c1ccc([C@H](C)NC(=O)[C@@H]2C[C@@H](O)CN2C(=O)[C@H](c2cc(-c3cnc(N4CC[C@H](c5ccc6cc(-c7ccccc7O)nnc6c5)C4)nc3)no2)C(C)C)cc1` [Compound 21], in experiment [1], the “BRM HiBit Degradation Maximum (%)” value is “C (“C” indicates maximum degradation <50%)”. Further, the Dmax in experiment [2] is under 50%.
`Cc1ncsc1-c1ccc([C@H](C)NC(=O)[C@@H]2C[C@@H](O)CN2C(=O)[C@@H](c2cc(-c3cnc(N4CC[C@H](c5ccc6cc(-c7ccccc7O)nnc6c5)C4)nc3)no2)C(C)C)cc1` [Compound 22]: in experiment [1], the DC50 is under 10 nM and the “BRM HiBit Degradation Maximum (%)” value is reported as “A (“A” indicates maximum degradation ≥75%)”. In experiment [2], the DC50 was under 10 nM and the Dmax was over 75%.
As for `COc1cc2nnc(-c3ccccc3O)cc2cc1C1CN(c2ncc(-c3cc([C@@H](C(=O)N4C[C@H](O)C[C@H]4C(=O)N[C@@H](C)c4ccc(-c5scnc5C)cc4)C(C)C)on3)cn2)C1` [Compound 23], in experiment [1], the DC50 is over 10 nM and the “BRM HiBit Degradation Maximum (%)” value was “A (“A” indicates maximum degradation ≥75%)”. Moreover, in experiment [2], the Dmax was under 50%.
